{
  "source": "patent US5736565A",
  "about": "“Therapeutic compounds suitable for the treatment of diseases connected with glutathione deficiency, process for their preparation, and pharmaceutical compositions containing same” (Prospa B.V., priority 1992, dated 1998)",
  "key": {"[1]": {"system": "reactive oxygen species (ROS) production of human spermatozoa", "assay": "Effect of PSC on the spermatic production of free radicals (chemiluminescence with luminol)", "format": "cell-based", "from_the_text": "Free radicals production was investigated under basal and maximal conditions (after A23187 addition) on controls and in the presence of PSC.\nA23187 is an ionophore bivalent cation that, under physiological conditions, promotes acrosomial reaction. It is used being capable of stimulating the production of superoxide radicals (Aitken R. J. et al., Generation of reactive oxygen species, lipid peroxidation and human sperm function, J. of Reproduction, 40, 183-197, 1989).\nSeminal fluid was obtained from 11 donors previously subjected to a complete medical check-up, to exclude the presence, if any, of sexual transmission diseases. Samples were obtained by masturbation and analysed within 1.5 hrs thereafter.\nSpermatozoa were separated from seminal fluid by three centrifugation cycles (500×g for 5 min) and resuspended in medium BWW (Biggers et al., \"The culture of mouse embryos in vitro\", Daniel J. C. ed., Methods in mammalian embryology, 86-116, 1971) at a concentration of 20×10^6 /ml.\nThe production of reactive oxygen species (ROS) was evaluated by chemiluminescence with luminol: human spermatozoa suspensions at a concentration of […] in a volume of 500 μl were subjected to the action of luminol (LM 100 mmol/l in dimethyl sulphoxide).Said spermatic suspension was then diluted with 500 μl of medium BWW alone (control) or containing PSC (10 mM); other spermatic suspensions contained A23187 (0.05 mg/ml) alone (positive control) and, respectively, A23187 (0.05 mg/ml)+PSC (10 mM).\n3 Minutes later, the chemiluminescent signal was recorded. Reactive oxygen species (ROS) production was expressed as photons brust (cpm) recorded by a luminometer Berthold L 9500."}, "[2]": {"system": "urethane-induced tumours of the lungs", "assay": "Urethane-induced tumours of the lungs in albino Swiss mice", "format": "in vivo", "experimental": "Male albino adult Swiss mice (20-25 g) were used. All animals were inoculated i.p. with urethane. The animals were treated with PSC (600 mg/kg) 15 days prior to and after inoculation. Once the treatment was completed, the animals were sacrificed, their lungs excised and subjected to necrohistologic examination."}, "DCP toxicity in the rat": {"system": "DCP toxicity in the rat", "assay": "Test No. 4: dichloropropane (DCP) intoxication in vivo, death rate and signs", "details": "DCP-treated rats", "experimental": "A test was carried out in vivo on four groups of four rats each, using, as a toxic substance, dichloropropane (DCP), the main constituent of several solvents. DCP is noxious both by ingestion and inhalation and has a notable toxicity to the liver, mediated by an almost total depletion of thiol groups, including those of GSH.\nThe experimental model involves the study of the effect of DCP toxicity in the rat, in respect of glutathione (GSH) concentration in the main target tissue: the liver.\nTests were carried out on four groups of rats. The first group of animals was administered 2 ml DCP/kg dissolved in oil (40% v/v) per os. Twenty-four hours after DCP administration, blood samples were taken for SGPT measurement, while the animals were sacrificed; small portions of liver were then excised and immediately deproteinized by homogenization in 6% PCA. The chromatographic analyses of GSH and GSSG (oxidized glutathione) were performed.\nThe second group of animals was treated with the test drug (600 mg/kg i.p.) two hours after DCP administration. The third and fourth groups were treated with N-acetyl-cysteine (NAC) (250 mg/kg i.p.) and, respectively, with glutathione (Tationil^R) (600 mg/kg i.p.)."}, "[3]": {"system": "Lewis lung carcinoma cells", "assay": "Transplantable neoplasms: metastases development in BALB/c mice", "format": "in vivo", "experimental": "Male adult BALB/c mice weighing 20 g were stabled under standard conditions (24°±1° C., 12 h light/dark cycle, free access to food and water). Handlings were made in such a way as to avoid stressful stimuli.\nAll animals, subdivided into groups of 6, were treated 4 weeks with a PSC dose (600 mg/kg). […] Treatment was continued two weeks after tumour inoculation. The mice were sacrificed and the tumoral mass growth and the development of metastases, if any, were evaluated."}, "hepatic GSH": {"system": "hepatic GSH", "assay": "Test No. 1: protection from ethanol acute administration, hepatic GSH content", "format": "in vivo, male albino Wistar rats", "design": "GSH Content: unit not given beside the values", "details": "for GSH Content: liver, ethanol 3 g/kg i.p.", "experimental": "Protection from ethanol acute administration […] Male albino Wistar rats weighing between 180 and 230 g were used. All animals were fasted for 24 hours prior to administration of isotonic solution, ethanol or ethanol combined with the test substances. As concerns the test substances, rats were intraperitoneally (i.p.) injected with compound of formula I (R=CH3) at doses of 10, 30, and 50 mg/kg and, for purposes of comparison, with the single constituents of compound (I) (R=CH3), […] (O-PRO) and L-cysteine (CIS), both at a 50 mg/kg dose. One hour after administration of the test substance, ethanol was injected i.p. at the dose of 3 g/kg. Thirty minutes later, the animals were sacrificed by decapitation and their liver was excised. […] Orwar et al., J. Chromatrogr., 556, 39-55 (1991)."}, "[4]": {"details": "600 mg/kg i.p., 30 days' treatment, 15 days after urethane i.p."}, "[5]": {"details": "600 mg/kg i.p., 30 days' treatment, 15 days after inoculation"}},
  "note": "“Also recorded” adds a separate entry of the source. Peptide text beside a SMILES is read from it.",
  "data": [
    {"compound": "CC(=O)SC[C@H](NC(=O)[C@@H]1CCC(=O)N1)C(=O)O", "note": "[PSC, 2-(S)-(2-pyrrolidone-5-(S)-carbonyl amido)-3-acetylmercapto propionic acid] (HELM PEPTIDE1{[Glp].C}|PEPTIDE2{[ac]}$PEPTIDE1,PEPTIDE2,2:R3-1:R2$$$V2.0)", "values": [
      {"measurement": "free radicals production (in words)", "setting": "[1]; basal and maximal conditions", "value": "caused a significant reduction in free radicals production"},
      {"measurement": "ROS production, photons brust", "setting": "[1]; medium + A23187 (0.05 mg/ml) + PSC (10 mM)", "value": "270.8 +/- 254 cpm"},
      {"measurement": "ROS production, photons brust", "setting": "[1]; medium + PSC (10 mM), basal", "value": "243.7 +/- 235.2 cpm"},
      {"measurement": "Mice with neoplasms, %", "setting": "[2]; [4]", "value": 50, "unit": "%"},
      {"measurement": "Mice with neoplasms/group", "setting": "[2]; [4]", "value": "3/6"},
      {"measurement": "development of tumours of the lungs (in words)", "setting": "[2]; chronic treatment", "value": "significantly slowed down the development of tumours of the lungs; also recorded: its action seems most potent on the tumours directly induced by contact with a chemical carcinogen, such as urethane"},
      {"measurement": "behavioural (torpor) and postural (ataxia) disorders (in words)", "setting": "DCP toxicity in the rat", "value": "did not show any notable modification of said parameters"},
      {"measurement": "death (in words)", "setting": "DCP toxicity in the rat", "value": "no death occurred"},
      {"measurement": "macroscopic examination of liver (in words)", "setting": "DCP toxicity in the rat", "value": "showed liver parenchyma within standard limits"},
      {"measurement": "coagulative disorders (in words)", "setting": "DCP toxicity in the rat; merely qualitative examination", "value": "absent"},
      {"measurement": "Mice with metastases, %", "setting": "[3]; [5]", "value": 33, "unit": "%"},
      {"measurement": "Mice with metastases/group", "setting": "[3]; [5]", "value": "2/6"},
      {"measurement": "metastatic process (in words)", "setting": "[3]; mouse, in vivo", "value": "slows down the metastatic process"},
      {"measurement": "hepatic glutathione formation (in words)", "setting": "hepatic GSH; ethanol-treated rats", "value": "enhances hepatic glutathione formation nearly to physiological levels"},
      {"measurement": "GSH Content", "setting": "hepatic GSH; test substance 10 mg/kg i.p.", "value": "3.6 ± 0.3"},
      {"measurement": "GSH Content", "setting": "hepatic GSH; test substance 30 mg/kg i.p.", "value": "4.3 ± 0.6"},
      {"measurement": "GSH Content", "setting": "hepatic GSH; test substance 50 mg/kg", "value": "5.8 ± 0.4"}
    ]}
  ]
}
